Assay results reported in patent publication US9795588B2, “Mammalian TOR inhibitor” (Chang Gung University, priority 2016, dated 2017).

Key:
[1] = system: Mouse adipocytes (3T3-L1); test: Adipocyte differentiation, oil-red O staining; assay type: cell-based; conditions: 3T3-L1 co-treated with DMI, 8 days, FIG. 6
Procedure: Mouse adipocytes (3T3-L1) were co-treated with DMI (5 μM of dexamethasone, 0.5 mM of 3-isobutyl-1-methylxanthine, and 0.1724 mM of insulin) and different chemicals. After being cultured for 8 days, the cell media was removed and oil-red O staining was used to analyze these adipocytes' differentiation.

[2] = system: Male C57BL/6 mice on high-fat diet; test: Intraperitoneal glucose tolerance testing in mice; assay type: in vivo, mouse; conditions: mice fasted 16 hours, 2 g/kg glucose, 0-120 min; FIG. 12
Procedure: (§1) Male C57BL/6 mice (8 weeks old) were purchased from the National Laboratory Animal Center. Mice were divided into three groups (n=6 each group): chow diet; high-fat diet (HFD, 60% ResearchDiet, D12492); and HFD gavage with corylin at 100 mg/kg. To compare the metabolic effects of corylin, parameters such as body weights, liver weights and white adipocytes tissue (WAT) weights from epididymal, inguinal and axilla subcutaneous were measured at the end of the treatment. […] For intraperitoneal glucose tolerance testing, mice were fasted for 16 hours and then injected with 2 g/kg of glucose solution. For insulin tolerance testing, mice were fasted for 3 hours and then injected with 1.2 U/kg insulin. Serum blood glucose levels were measured at 0, 15, 30, 60, 90, and 120 min after glucose and insulin injection.

[3] = system: Male C57BL/6 mice on high-fat diet; test: High-fat diet mice: body, liver and white adipocytes tissue weights; assay type: in vivo, mouse; conditions: HFD mice, gavage 100 mg/kg, end of treatment
Procedure: Male C57BL/6 mice (8 weeks old) were purchased from the National Laboratory Animal Center. Mice were divided into three groups (n=6 each group): chow diet; high-fat diet (HFD, 60% ResearchDiet, D12492); and HFD gavage with corylin at 100 mg/kg. To compare the metabolic effects of corylin, parameters such as body weights, liver weights and white adipocytes tissue (WAT) weights from epididymal, inguinal and axilla subcutaneous were measured at the end of the treatment.

[4] = system: S6K phosphorylation; test: S6K phosphorylation by Western blotting in U2OS cells; assay type: cell-based, human; conditions: 8 hours
Procedure: Human osteosarcoma (U2OS) cells were treated with different chemicals in different concentrations. After the cells were cultured for 8 hours, the protein therein was extracted. Finally, Western blotting assay was used to analyze the extracted protein. […] Moreover, human osteosarcoma cells were pre-treated with mammalian SIRT1 inhibitor EX-527 for 1 hour. Afterwards, those cells were treated with 100 μM corylin and cultured for 8 hours. Finally, Western blotting assay was used to analyze the protein extracted from those cells.

[5] = system: Male C57BL/6 mice on high-fat diet; test: Insulin tolerance testing in mice; assay type: in vivo, mouse; conditions: mice fasted 3 hours, 1.2 U/kg insulin, 0-120 min; FIG. 13
Procedure: as §1

[6] = system: S6K phosphorylation caused by insulin; test: Insulin-induced S6K phosphorylation by Western blotting; assay type: cell-based; conditions: human osteosarcoma cells, 400 nM insulin, 10 minutes; FIG. 7
Procedure: High concentration insulin can cause phosphorylation and thus cells are resistant to insulin, which is one cause for type II diabetes. In order to mimic type II diabetes, human osteosarcoma cells were cultured in 400 nM of insulin and different chemicals for 10 minutes. After which, Western blotting assay was used to analyze the protein in these cells.

[7] = system: ICAM-1 expression; test: Lipopolysaccharide-induced ICAM-1 expression by Western blotting in HASMC; assay type: cell-based, human; conditions: corylin 24 hours then lipopolysaccharide 24 hours, FIG. 8
Procedure: Lipopolysaccharide can induce immune response on blood vessels. During immune response, blood vessels can also overexpress ICAM-1, which is one cause of cardiovascular disease. To mimic this disease, human aortic smooth muscle cells (HASMC) were treated with corylin in different concentrations and then cultured for 24 hours. After these cells were treated with lipopolysaccharide for 24 hours, the protein in these cells was extracted and analyzed by Western blotting assay.

[8] = system: yeast cells; test: Replicative life span of yeast cells (passage number); assay type: cell-based; conditions: YEPD media, 30° C.; FIG. 2
Procedure: A yeast colony was selected and cultured in a YEPD culture media. When the OD value of the media was at 0.6-0.8, 20 μl of the media containing different chemicals was added to a YEPD solid media, and then 20-30 yeast cells were selected using a tetrad dissection microscope manipulation system. The selected yeast cells were cultured at 30° C. for 3-5 hours to divide into first generation yeast cells. Afterwards, the first generation yeast cells were cultured at 30° C. for 3-5 hours to divide into second generation yeast cells. The culturing step was repeated until final generation yeast cells which cannot divide anymore existed. Finally, the yeast cells' passage number was counted according to the total division number.

[9] = system: human umbilical vein endothelial cells (HUVEC); test: SA-βgal cellular aging assay in HUVEC; assay type: cell-based; conditions: corylin in different concentrations, successive generations, FIG. 3
Procedure: In addition, human umbilical vein endothelial cells (HUVEC) were treated with corylin in different concentrations, and the cells at this moment were called first generation cells. Second generation cells grew by culturing the first generation cells for 2-3 days, and then the second generation cells were treated with corylin in different concentrations. Third to Nth generation cells grew by repeating the culturing process. During each culture process, SA-βgal assay was used to analyze the responding generation cells. The more SA-βgal positive cells the cultured cells contained, the older the cultured cells were.

Oc1ccc(C=Cc2cc(O)cc(O)c2)cc1 [resveratrol, reference compound]
inhibition of adipocytes' differentiation [1]: inhibition of adipocytes' differentiation

corylin
intraperitoneal glucose tolerance (serum blood glucose) [2]: can lower intraperitoneal glucose tolerance
body weight ([3]; FIG. 9): has an effect on the reduction of body weight
liver weight ([3]; FIG. 10): has an effect on the reduction of
interference of SIRT1 inhibitor EX-527 with corylin's effect on S6K phosphorylation ([4]; U2OS cells pre-treated with EX-527 for 1 hour, then 100 μM corylin, FIG. 5): cannot interfere with the S6K phosphorylation caused by corylin
S6K phosphorylation ([4]; U2OS cells, different concentrations, FIG. 4): can suppress S6K phosphorylation in dose-dependent manner
insulin tolerance (serum blood glucose) [5]: can lower
S6K phosphorylation caused by insulin [6]: can suppress such phosphorylation caused by insulin
ICAM-1 expression caused by lipopolysaccharide [7]: can inhibit ICAM-1 expression caused by lipopolysaccharide
yeast cells' passage number (replicative life span) [8]: can increase yeast cells' passage number
inhibition of adipocytes' differentiation [1]: more obvious than that caused by resveratrol
cells' aging (SA-βgal positive cells) [9]: can inhibit the cells' aging in dose-dependent manner
